Source: PubChem BioAssay AID200 (DTP/NCI, 2004)
“And” between values parts separate entries of the source, which are not always exact repeats. Equal values may be shown once. Toxic doses and inconclusive results are not listed. Where a SMILES comes first, the peptide text is derived from it. [ ]: non-standard residue; d: D form. The star is where a group is joined. Nle = CCCC[CH](N)C(=O)O; Cbz = O=C(OCc1ccccc1)*; Nva = CCC[CH](N)C(=O)O

Test system: B6C3F1 mice, B16 melanoma ip, median survival T/C
Assay: NCI In Vivo Anticancer Drug Screen. Data for tumor model B16 Melanoma (intraperitoneal) in B6C3F1 mice
Details: endpoint: median survival time, higher = longer survival
Protocol: The antitumor activity of compounds was measured in mice bearing transplantable tumors. Survival or tumor size were measured and the results are expressed as the measurement made in the treated group (T) divided by the measurement made in the vehicle treated control group (C). The tumor model used in this assay is B16 Melanoma (intraperitoneal) in B6C3F1 mice

[1] = dose: 3.12 mg/kg/injection, schedule: Q01DX009 (ip), vehicle: Klucel (hydroxypropylcellulose) (HPC)
[2] = dose: 50.0 mg/kg/injection, schedule: Q01DX009 (ip), vehicle: Klucel (hydroxypropylcellulose) (HPC)
[3] = dose: 400.0 mg/kg/injection, schedule: Q01DX009 (ip), vehicle: saline with Tween-80
[4] = dose: 0.25 mg/kg/injection, schedule: Q01DX009 (ip), vehicle: saline
[5] = dose: 0.5 mg/kg/injection, schedule: Q01DX009 (ip), vehicle: saline
[6] = dose: 1.0 mg/kg/injection, schedule: Q01DX009 (ip), vehicle: saline
[7] = dose: 25.0 mg/kg/injection, schedule: Q01DX009 (ip), vehicle: suspension in saline
[8] = dose: 50.0 mg/kg/injection, schedule: Q01DX009 (ip), vehicle: suspension in saline
[9] = dose: 100.0 mg/kg/injection, schedule: Q01DX009 (ip), vehicle: suspension in saline
[10] = dose: 200.0 mg/kg/injection, schedule: Q01DX009 (ip), vehicle: suspension in saline
[11] = dose: 25.0 mg/kg/injection, schedule: Q01DX009 (ip), vehicle: Klucel (hydroxypropylcellulose) (HPC)
[12] = dose: 25.0 mg/kg/injection, schedule: Q01DX009 (ip), vehicle: water
[13] = dose: 50.0 mg/kg/injection, schedule: Q01DX009 (ip), vehicle: water
[14] = dose: 100.0 mg/kg/injection, schedule: Q01DX009 (ip), vehicle: Klucel (hydroxypropylcellulose) (HPC)
[15] = dose: 200.0 mg/kg/injection, schedule: Q01DX009 (ip), vehicle: Klucel (hydroxypropylcellulose) (HPC)
[16] = dose: 12.5 mg/kg/injection, schedule: Q01DX009 (ip), vehicle: saline with Tween-80
[17] = dose: 25.0 mg/kg/injection, schedule: Q01DX009 (ip), vehicle: saline with Tween-80
[18] = dose: 50.0 mg/kg/injection, schedule: Q01DX009 (ip), vehicle: saline with Tween-80
[19] = dose: 50.0 mg/kg/injection, schedule: Q01DX009 (ip), vehicle: saline
[20] = dose: 100.0 mg/kg/injection, schedule: Q01DX009 (ip), vehicle: saline
[21] = dose: 200.0 mg/kg/injection, schedule: Q01DX009 (ip), vehicle: saline
[22] = dose: 12.5 mg/kg/injection, schedule: Q01DX009 (ip), vehicle: saline

## OC1CC2CCCCC2CC1c1ccccc1 (stereo not drawn)
dose: 25.0 mg/kg/injection, schedule: Q04DX003 (ip), vehicle: saline with Tween-80
  T/C: 95 % of control
dose: 50.0 mg/kg/injection, schedule: Q04DX003 (ip), vehicle: saline with Tween-80
  T/C: 114 % of control
dose: 100.0 mg/kg/injection, schedule: Q04DX003 (ip), vehicle: saline with Tween-80
  T/C: 104 % of control
dose: 200.0 mg/kg/injection, schedule: Q04DX003 (ip), vehicle: saline with Tween-80
  T/C: 93 % of control
dose: 400.0 mg/kg/injection, schedule: Q04DX003 (ip), vehicle: saline with Tween-80
  T/C: 92 % of control

## CNC(=O)OCc1c(COC(=O)NC)c(C)n(-c2ccc(OC)cc2)c1C
[1]
  T/C: 112 % of control
[2]
  T/C: 111 % of control

## OCC(O)C(O)C(O)C(O)CO (stereo not drawn)
dose: 75.0 mg/kg/injection, schedule: Q01DX009 (ip), vehicle: saline
  T/C: 107 % of control
dose: 150.0 mg/kg/injection, schedule: Q01DX009 (ip), vehicle: saline
  T/C: 104 % of control
dose: 300.0 mg/kg/injection, schedule: Q01DX009 (ip), vehicle: saline
  T/C: 112 % of control
dose: 600.0 mg/kg/injection, schedule: Q01DX009 (ip), vehicle: saline
  T/C: 112 % of control
dose: 1200.0 mg/kg/injection, schedule: Q01DX009 (ip), vehicle: saline
  T/C: 98 % of control

## O=c1[nH]c(=O)n(C2CC(O)C(CO)O2)cc1I (stereo not drawn)
[3]
  T/C: 111 % of control

## COc1cccc2c1C(=O)c1c(O)c3c(c(O)c1C2=O)C[C@@](O)(C(=O)COC(=O)c1cccnc1)C[C@@H]3OC1CC(N)C(O)C(C)O1 (stereo partly drawn)
[4]
  T/C: 170 % of control
[5]
  T/C: 198 % of control
[6]
  T/C: 220 % of control
dose: 2.0 mg/kg/injection, schedule: Q01DX009 (ip), vehicle: saline
  T/C: 255 % of control

## Cc1cc2nc3c(=O)[nH]c(=O)nc-3n(CC(O)C(O)C(O)C(O)CO)c2cc1C (stereo not drawn)
[7]
  T/C: 104 % of control
[8]
  T/C: 111 % of control
[9]
  T/C: 102 % of control
[10]
  T/C: 93 % of control

## Nc1ccc(C(=O)O)cc1
[1]
  T/C: 100 % of control and 104 % of control
dose: 6.25 mg/kg/injection, schedule: Q01DX009 (ip), vehicle: Klucel (hydroxypropylcellulose) (HPC)
  T/C: 114 % of control and 99 % of control and 103 % of control
dose: 12.5 mg/kg/injection, schedule: Q01DX009 (ip), vehicle: Klucel (hydroxypropylcellulose) (HPC)
  T/C: 114 % of control and 101 % of control
[11]
  T/C: 112 % of control and 90 % of control and 107 % of control
[12]
  T/C: 98 % of control
[2]
  T/C: 100 % of control
[13]
  T/C: 101 % of control
[14]
  T/C: 117 % of control
dose: 100.0 mg/kg/injection, schedule: Q01DX009 (ip), vehicle: water
  T/C: 102 % of control
[15]
  T/C: 105 % of control

## O=c1nc(-c2ccco2)sc(=O)[nH]1
[11]
  T/C: 95 % of control
[2]
  T/C: 99 % of control
[14]
  T/C: 118 % of control
[15]
  T/C: 112 % of control

## CCCCC(NC(=O)C(CCC)NC(=O)OCc1ccccc1)C(=O)O (stereo not drawn) (Cbz-[Nva]-[Nle]-OH; configuration not given here)
[14]
  T/C: 104 % of control
[15]
  T/C: 101 % of control

## Cc1c(NS(=O)(=O)c2ccccc2)c(C)c(NS(=O)(=O)c2ccccc2)c(C)c1NS(=O)(=O)c1ccccc1
[16]
  T/C: 97 % of control
[17]
  T/C: 100 % of control
[18]
  T/C: 94 % of control

## CC(=O)OC1C(C)OC(OC(=O)C2CCC3C(C2)OC2(CC(OC(=O)/C=C/c4ccccc4)C(C)CO2)C32CO2)C(OC2OC(C)C(O)C(OC(C)=O)C2O)C1O (stereo not drawn)
dose: 0.75 mg/kg/injection, schedule: Q01DX009 (ip), vehicle: saline + alcohol
  T/C: 100 % of control
dose: 1.5 mg/kg/injection, schedule: Q01DX009 (ip), vehicle: saline + alcohol
  T/C: 99 % of control
dose: 3.0 mg/kg/injection, schedule: Q01DX009 (ip), vehicle: saline + alcohol
  T/C: 99 % of control
dose: 4.0 mg/kg/injection, schedule: Q01DX009 (ip), vehicle: saline + Tween-80 + alcohol
  T/C: 122 % of control
dose: 16.0 mg/kg/injection, schedule: Q01DX009 (ip), vehicle: saline + Tween-80 + alcohol
  T/C: 161 % of control
dose: 32.0 mg/kg/injection, schedule: Q01DX009 (ip), vehicle: saline + Tween-80 + alcohol
  T/C: 174 % of control
dose: 64.0 mg/kg/injection, schedule: Q01DX009 (ip), vehicle: saline + Tween-80 + alcohol
  T/C: 201 % of control

## O=c1c(O)c(-c2ccc(O)c(O)c2)oc2cc(O)cc(O)c12
dose: 12.5 mg/kg/injection, schedule: Q01DX009 (ip), vehicle: suspension in saline
  T/C: 103 % of control
[7]
  T/C: 107 % of control
[8]
  T/C: 102 % of control
[9]
  T/C: 109 % of control

## Cc1c2ccccc2c(C)c2c1cc(C(=O)O)c1ccccc12
dose: 25.0 mg/kg/injection, schedule: Q01DX009 (ip), vehicle: sodium bicarbonate
  T/C: 99 % of control
dose: 50.0 mg/kg/injection, schedule: Q01DX009 (ip), vehicle: sodium bicarbonate
  T/C: 105 % of control
dose: 100.0 mg/kg/injection, schedule: Q01DX009 (ip), vehicle: sodium bicarbonate
  T/C: 108 % of control
dose: 200.0 mg/kg/injection, schedule: Q01DX009 (ip), vehicle: sodium bicarbonate
  T/C: 109 % of control
dose: 400.0 mg/kg/injection, schedule: Q01DX009 (ip), vehicle: sodium bicarbonate
  T/C: 101 % of control

## [Cl][Pt][Cl].[NH-]C(CO)C(=O)O (stereo not drawn)
dose: 3.13 mg/kg/injection, schedule: Q01DX009 (ip), vehicle: water
  T/C: 98 % of control
dose: 6.25 mg/kg/injection, schedule: Q01DX009 (ip), vehicle: water
  T/C: 106 % of control
dose: 12.5 mg/kg/injection, schedule: Q01DX009 (ip), vehicle: water
  T/C: 116 % of control and 107 % of control
[12]
  T/C: 120 % of control
[13]
  T/C: 114 % of control

## NCC(=O)N1CCCC1C(=O)NCC(=O)NCC(=O)O (stereo not drawn) (HELM PEPTIDE1{G.[O=C(C1CCCN1[*:1])[*:2]].G.G}$$$$V2.0)
[19]
  T/C: 92 % of control
[20]
  T/C: 100 % of control
[21]
  T/C: 95 % of control

## CC1(C)OC1CS(=O)c1ccccc1 (stereo not drawn)
[16]
  T/C: 96 % of control
[22]
  T/C: 93 % of control
[17]
  T/C: 99 % of control
dose: 25.0 mg/kg/injection, schedule: Q01DX009 (ip), vehicle: saline
  T/C: 98 % of control
[18]
  T/C: 102 % of control
[19]
  T/C: 96 % of control
dose: 100.0 mg/kg/injection, schedule: Q01DX009 (ip), vehicle: saline with Tween-80
  T/C: 95 % of control
[20]
  T/C: 98 % of control
dose: 200.0 mg/kg/injection, schedule: Q01DX009 (ip), vehicle: saline with Tween-80
  T/C: 90 % of control
[21]
  T/C: 98 % of control
[3]
  T/C: 89 % of control
dose: 400.0 mg/kg/injection, schedule: Q01DX009 (ip), vehicle: saline
  T/C: 93 % of control

## C1CNCCN1
[7]
  T/C: 103 % of control
[8]
  T/C: 111 % of control
[9]
  T/C: 109 % of control
[10]
  T/C: 111 % of control

## COc1cc([C@@H]2c3cc4c(cc3[C@@H](OC3OC5CO[C@@H](c6cccs6)OC5C(O)C3O)[C@H]3COC(=O)[C@H]23)OCO4)cc(OC)c1O (stereo partly drawn)
[4]
  T/C: 110 % of control
[5]
  T/C: 123 % of control
[6]
  T/C: 122 % of control
dose: 4.0 mg/kg/injection, schedule: Q01DX009 (ip), vehicle: saline
  T/C: 162 % of control

## CCOC(=O)N1CCN(CCCCCCOc2ccc(C3CCCCC3)cc2)CC1
dose: 1.56 mg/kg/injection, schedule: Q01DX009 (ip), vehicle: saline
  T/C: 110 % of control
dose: 3.13 mg/kg/injection, schedule: Q01DX009 (ip), vehicle: saline
  T/C: 93 % of control
dose: 6.25 mg/kg/injection, schedule: Q01DX009 (ip), vehicle: saline
  T/C: 101 % of control
[22]
  T/C: 97 % of control and 105 % of control
